# Results: patent publication US11723947B2, “Anti-senescence compounds and uses thereof” (Erasmus University Medical Center Rotterdam, priority 2015, dated 2023)
# Square brackets hold non-standard residues; d marks the D form. Ends that are not written are not given here.
# Tests used:
# [1] = tested on: fast aging Xpd^TTD/TTD mice; test: Healthspan, organ function and blood parameters of fast aging Xpd^TTD/TTD and wildtype mice; format: in vivo, mouse; conditions: 5 mg/kg i.v. day 0, 2 and 4, end of experiment
# [2] = tested on: Senescent and control IMR90
# Procedure: The selectivity index (S.I.) for the EC50 values was determined after […] (GraphPad Prism) of the curves. […] Real-time cell density was measured using an xCELLigence detection system (ACEA Biosciences). Prior to the start of the measurement 50 μL DMEM 10% FCS was added to each well of an E-plate view 16 (Roche) to determine background signal. Non-senescent (2000 cells per well) and senescent (5000 cells/well) IMR90 fibroblasts were then plated in 150 μl medium. 16 hours later the E-plate was placed in the xCELLigence reader and the cell density was recorded every 30 minutes. […] Measurements continued for the indicated time-points. […] Experiment as in FIG. 2C, but with the indicated peptides. […] Cells were plated in 4-well Poly-L-Lysine coated glass bottom 35 mm dishes (D141410; Matsumi, Japan) and incubated with NucView488 Caspase-3 (4440; Essen Bioscience). […] 8h after addition the real-time imaging was initiated and every 30 min a grid of 3×3 pictures was imaged. The imaging continued for another 6 days and the images were concatenated using Zen imaging software. […] After 6 days cell viability was determined as in FIG. 2C). […] Experiment as in FIG. 2C, but according to the indicated treatment plan. Instead of one single dose, three doses were given (one day in between) of ⅓ that concentration each time. […] Left: Experiment as in FIG. 2C, but on cells pretreated once daily for two days with IL-1α Receptor Antagonist (RA), which blocks IL-1α/β signaling, recombinant IL-6 and recombinant IL-1α/β. […] Right: Similar experiment as in the left panel, except viability measured one day earlier. […] In senescent cells p53 signaling causes upregulation of the cell-cycle arrest and pro-survival protein p21Cip1. […] Experiment as in FIG. 2K. […] Experiment as in FIG. 2c, but with control and senescent IMR90 stable transduced with shRNAs against p53 or a control shRNA (shGFP).
# A) Control IMR90 and IMR90 induced to senesce through 10Gy IR were plated in triplicate for each condition in a 96-well plate. […] After 6 days viability was determined through AqeousOne celltiter assay (Promega) according to the manufacturer's instructions.
# Non-senescent (=“normal”, proliferating) IMR90 cells (ATCC #CCL-186, a diploid primary human fibroblast adherent cell line derived from fetal lung tissue) were irradiated with 10Gy Gamma-IR (IR=irradiation). After 7 days these cells are senescent and can be used for experiments comparing them to their non-irradiated (=non-senescent) counterparts. Senescent and non-senescent IMR90 fibroblasts were plated for longitudinal cell density measurement using the xCELLigence system (ACEA Biosciences, Inc., San Diego, Calif.).
# (§1) 5000 senescent (obtained as described above) and 2000 non-senescent IMR90 fibroblasts were plated in 96-well plates incubated with concentrations of NQDI between 0-20 μM and after 6 days cell viability was determined by AqueousOne CellTiter (MTT) assay according to the manufacturer's instructions.
# as §1, with “R406, ranging from 16, 32, 64 to 128 nM” for “NQDI between 0-20 μM”
# Normal human IMR90 fibroblasts were exposed to 10 Gy Ionizing Radiation or treated 3× (bidaily) with 0.5 μM Doxorubicin. Seven days later they were processed for SA-β-Gal staining to visualize senescent cells. […] DAPI was used as a counterstain to visualize nuclei. […] After 6 days the cell viability was determined using an AqueousOne Celltiter (MTT) assay according to the manufacturer's instructions.
substance,measurement,setting,value
[dL][dT][dL][dR][dK][dE][dP][dA][dS][dE][dI][dA][dQ][dS][dI][dL][dE][dA][dY][dS][dQ][dN]G[dW][dA][dN][dR][dR][dS]GG[dK][dR][dP][dP][dP][dR][dR][dR][dQ][dR][dR][dK][dK][dR]G [FOXO4 DRI],toxicity to the hematopoietic system (blood parameters),[1],does not induce toxicity to the hematopoietic system
same,toxicity to non-senescent cells,[2],proved to be safe to non-senescent cells
